Source: ChEMBL document CHEMBL6120958, “A Highly Atom-Efficient Prodrug Approach to Generate Synergy between H2S and Nonsteroidal Anti-inflammatory Drugs and Improve Safety” (J Med Chem, 2024)
Activity calls are given as the source filed them. No cut-off for these calls is given here.

Assays:
[1] = Toxicity against collagen-induced arthritis Wistar rat model assessed as gastric ulceration at 16.8 umol/kg, po administered for 28 days; assay type: organism-based; conditions: in vivo, 672 h, dose 16.8 µmol/kg, time 28 day
[2] = Stability of the compound in PBS at 500 uM measured within 144 hrs at pH 7.4 at 37 degC by HPLC analysis; assay type: physicochemical; conditions: buffer, pH 7.4, 144 h
[3] = Cardiotoxicity against Sprague-Dawley rat assessed as striated muscle recovery with reduced vacuolation in heart at 14.2 mg/kg, ip administered for 6 days by Hematoxylin-Eosin staining analysis; assay type: toxicity, organism-based; conditions: in vivo, 144 h, time 6 day
[4] = Toxicity against Sprague-Dawley rat assessed as diarrhea at 10.5 mg/kg, po administered via gavage for 7 days; assay type: organism-based; conditions: in vivo, 168 h, time 7 day
[5] = Toxicity against collagen-induced arthritis Wistar rat model assessed as decrease in SOD activity in liver at 33.7 umol/kg, po administered for 28 days; assay type: organism-based; conditions: in vivo, 672 h, dose 33.7 µmol/kg, time 28 day
[6] = Toxicity against collagen-induced arthritis Wistar rat model assessed as preserved mucosa integrity without gastrointestinal damage at 33.7 umol/kg, po administered for 28 days by Hematoxylin-Eosin staining based analysis; assay type: organism-based; conditions: in vivo, 672 h, dose 33.7 µmol/kg, time 28 day
[7] = Cardiotoxicity against Sprague-Dawley rat assessed as SOD level in heart at 14.2 mg/kg, ip administered for 6 days; assay type: toxicity, organism-based; conditions: in vivo, 144 h, time 6 day
[8] = test system: Rattus norvegicus; experiment: Antiinflammatory activity against collagen-induced arthritis Wistar rat model assessed as reduction in IL-1 beta level in serum at 33.7 umol/kg, po administered for 28 days via gavage by ELISA; assay type: functional, organism-based; conditions: dose 33.7 µmol/kg, time 28.0 day
[9] = Toxicity against collagen-induced arthritis Wistar rat model assessed as increase in body weight at 16.8 umol/kg, po administered for 28 days; assay type: organism-based; conditions: in vivo, 672 h, at 16.8 µmol/kg, time 28 day
[10] = molecular target: T1, Prostaglandin G/H synthase 1 (Ovis aries, UniProt P05979); experiment: Inhibition of ovine COX1 assessed as reduction in PGF2alpha production using arachidonic acid as substrate preincubated with enzyme for 10 mins followed by substrate addition and measured after 2 mins by ELISA
T1 sequence (P05979 whole entry): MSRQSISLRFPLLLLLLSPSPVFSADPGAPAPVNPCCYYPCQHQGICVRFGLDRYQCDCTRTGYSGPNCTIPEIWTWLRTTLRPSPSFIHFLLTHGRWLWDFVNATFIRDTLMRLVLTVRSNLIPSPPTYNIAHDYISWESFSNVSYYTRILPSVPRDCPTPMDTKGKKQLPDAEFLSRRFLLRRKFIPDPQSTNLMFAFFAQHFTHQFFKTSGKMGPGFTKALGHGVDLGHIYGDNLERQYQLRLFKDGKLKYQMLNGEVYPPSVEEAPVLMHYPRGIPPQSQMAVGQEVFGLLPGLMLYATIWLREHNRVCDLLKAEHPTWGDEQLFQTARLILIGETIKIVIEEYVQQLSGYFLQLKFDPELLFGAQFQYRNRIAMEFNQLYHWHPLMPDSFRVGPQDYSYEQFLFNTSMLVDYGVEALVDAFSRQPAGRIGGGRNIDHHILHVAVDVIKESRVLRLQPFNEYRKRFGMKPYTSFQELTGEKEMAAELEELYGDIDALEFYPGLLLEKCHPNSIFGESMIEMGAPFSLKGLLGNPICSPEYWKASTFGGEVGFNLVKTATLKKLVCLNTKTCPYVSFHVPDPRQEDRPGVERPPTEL

[11] = Toxicity against collagen-induced arthritis Wistar rat model assessed as glutathione level in liver at 33.7 umol/kg, po administered for 28 days; assay type: organism-based; conditions: in vivo, 672 h, dose 33.7 µmol/kg, time 28 day
[12] = test system: Rattus norvegicus; experiment: Antiinflammatory activity against collagen-induced arthritis Wistar rat model assessed as increase in IL-10 level in serum at 33.7 umol/kg, po administered for 28 days via gavage by ELISA; assay type: functional, organism-based; conditions: dose 33.7 µmol/kg, time 28.0 day
[13] = Stability of the compound in PBS at 500 uM measured for 3 months at pH 7.4 at -20 degC by HPLC analysis; assay type: physicochemical; conditions: buffer, pH 7.4, 2190 h
[14] = Toxicity against collagen-induced arthritis Wistar rat model assessed as decrease in CAT activity in kidney at 33.7 umol/kg, po administered for 28 days; assay type: organism-based; conditions: in vivo, 672 h, dose 33.7 µmol/kg, time 28 day
[15] = Drug metabolism in Wistar rat assessed as DCF level in blood at 10.5 mg/kg, po administered via gavage measured after 10 mins by LC-MS/MS analysis; assay type: ADME, organism-based; conditions: in vivo
[16] = Toxicity against collagen-induced arthritis Wistar rat model assessed as creatinine level in serum at 33.7 umol/kg, po administered for 28 days; assay type: organism-based; conditions: in vivo, 672 h, dose 33.7 µmol/kg, time 28 day
[17] = Cardiotoxicity against Sprague-Dawley rat assessed as increase in Bcl-2 level in heart at 14.2 mg/kg, ip administered for 6 days by immunofluorescence staining analysis; assay type: toxicity, organism-based; conditions: in vivo, 144 h, time 6 day
[18] = Toxicity against collagen-induced arthritis Wistar rat model assessed as increase in body weight at 33.7 umol/kg, po administered for 28 days; assay type: organism-based; conditions: in vivo, 672 h, at 33.7 µmol/kg, time 28 day
[19] = Oral bioavailability in Wistar rat at 10.5 mg/kg; assay type: ADME, organism-based; conditions: in vivo
[20] = Toxicity against Sprague-Dawley rat assessed as dysbiosis in gut microbiota at 10.5 mg/kg, po administered via gavage for 7 days and measured at 2 hrs post-last drug dosage by 16S rRNA amplicon sequencing based PCA analysis; assay type: organism-based; conditions: in vivo, 168 h, time 7 day
[21] = Toxicity against Sprague-Dawley rat assessed as valeric acid and caproic acid in feces at 10.5 mg/kg, po administered via gavage for 7 days and measured at 2 hrs post-last drug dosage; assay type: organism-based; conditions: in vivo, 168 h, time 7 day
[22] = Toxicity against Sprague-Dawley rat assessed as potentially pathogenic bacteria (Clostridiaceae and Peptostreptococcaceae) level at 10.5 mg/kg, po administered via gavage for 7 days and measured at 2 hrs post-last drug dosage by Kruskal-Wallis H test; assay type: organism-based; conditions: in vivo, 168 h, time 7 day
[23] = Toxicity against collagen-induced arthritis Wistar rat model assessed as AST level in serum at 33.7 umol/kg, po administered for 28 days; assay type: organism-based; conditions: in vivo, 672 h, dose 33.7 µmol/kg, time 28 day
[24] = Cardiotoxicity against Sprague-Dawley rat assessed as decrease in cleaved caspase-3 level in heart at 14.2 mg/kg, ip administered for 6 days by immunofluorescence staining analysis; assay type: toxicity, organism-based; conditions: in vivo, 144 h, time 6 day
[25] = test system: Rattus norvegicus; experiment: Antiinflammatory activity against collagen-induced arthritis Wistar rat model assessed as reduction in toe swelling at 33.7 umol/kg, po administered for 28 days via gavage; assay type: functional, organism-based; conditions: dose 33.7 µmol/kg, time 28.0 day
[26] = Stability of the compound in rat plasma assessed as half life by LC-MS/MS analysis; assay type: ADME, cell-free
[27] = Toxicity against C57BL/6J mouse assessed as ALT level in serum at 506 umol/kg, ip measured after 24 hrs; assay type: organism-based; conditions: in vivo, dose 506 µmol/kg
[28] = Toxicity against Sprague-Dawley rat assessed as decrease in crypt proliferation at 10.5 mg/kg, po administered via gavage for 7 days and measured at 2 hrs post-last drug dosage by Ki67 immunohistochemistry; assay type: organism-based; conditions: in vivo, 168 h, time 7 day
[29] = Toxicity against Sprague-Dawley rat assessed as preservation of integrity of jejunal vili without crypt damage and less glandular structure loss in colon at 10.5 mg/kg, po administered via gavage for 7 days and measured at 2 hrs post-last drug dosage by Hematoxylin-Eosin staining based analysis; assay type: organism-based; conditions: in vivo, 168 h, time 7 day
[30] = Toxicity against Sprague-Dawley rat assessed as apoptosis in intestine at 10.5 mg/kg, po administered via gavage for 7 days and measured at 2 hrs post-last drug dosage by TUNEL immunofluorescence staining; assay type: organism-based; conditions: in vivo, 168 h, time 7 day
[31] = Drug metabolism in Wistar rat assessed as DCF level in blood at 10.5 mg/kg, po administered via gavage measured after 5 mins by LC-MS/MS analysis; assay type: ADME, organism-based; conditions: in vivo
[32] = Cardiotoxicity against Sprague-Dawley rat assessed as MDA level in heart at 14.2 mg/kg, ip administered for 6 days; assay type: toxicity, organism-based; conditions: in vivo, 144 h, time 6 day
[33] = Stability in Wistar rat assessed as parent drug level in blood at 10.5 mg/kg, po administered via gavage measured after 5 mins by LC-MS/MS analysis; assay type: ADME, organism-based; conditions: in vivo
[34] = Toxicity against Sprague-Dawley rat assessed as elevation of beneficial gut probiotics(Prevotellaceae and Erysipelotrichaceae) at 10.5 mg/kg, po administered via gavage for 7 days and measured at 2 hrs post-last drug dosage by Kruskal-Wallis H test; assay type: organism-based; conditions: in vivo, 168 h, time 7 day
[35] = Toxicity against collagen-induced arthritis Wistar rat model assessed as uric acid level in serum at 33.7 umol/kg, po administered for 28 days; assay type: organism-based; conditions: in vivo, 672 h, dose 33.7 µmol/kg, time 28 day
[36] = Cardiotoxicity against Sprague-Dawley rat assessed as cTnI level in serum at 14.2 mg/kg, ip administered for 6 days (reference value: 1.9 +/-0.2 ng/ml); assay type: toxicity, organism-based; conditions: in vivo, 144 h, time 6 day
[37] = Cardiotoxicity against Sprague-Dawley rat assessed as LDH level in serum at 14.2 mg/kg, ip administered for 6 days (reference value: 831.8 +/-23.1 U/L); assay type: toxicity, organism-based; conditions: in vivo, 144 h, time 6 day
[38] = Cardiotoxicity against Sprague-Dawley rat assessed as myocardial fibrosis at 14.2 mg/kg, ip administered for 6 days by Masson staining analysis; assay type: toxicity, organism-based; conditions: in vivo, 144 h, time 6 day
[39] = Toxicity against C57BL/6J mouse assessed as AST level in serum at 506 umol/kg, ip measured after 24 hrs; assay type: organism-based; conditions: in vivo, dose 506 µmol/kg

Stability [2]: Stable
IC50 [10]: 35.9 nM
Stability [13]: Stable
Drug metabolism [15]: 9755 ng/mL
bioavailability [19]: 80%
half-life [26]: 1.45 h
Drug metabolism [31]: 942.7 ng/mL
Stability [33]: 2330 ng/mL
Compound: O=C([S-])Cc1ccccc1Nc1c(Cl)cccc1Cl.[Na+]
Activity [1]: Non-toxic
Activity [3]: Non-toxic
Activity [4]: Non-toxic
Activity [5]: Non-toxic
Activity [6]: Non-toxic
Activity [7]: Non-toxic
Activity [8]: Active
Activity [9]: 8%
Activity [11]: 1.2 µg/mg
Activity [12]: Active
Activity [14]: Non-toxic
Activity [16]: 313.9 µmol/L
Activity [17]: Non-toxic
Activity [18]: 8%
Activity [20]: Non-toxic
Activity [21]: Non-toxic
Activity [22]: Non-toxic
Activity [23]: 50.2 U/L
Activity [24]: Non-toxic
Activity [25]: Active
Activity [27]: 45.9 U/L
Activity [28]: Non-toxic
Activity [29]: Non-toxic
Activity [30]: Non-toxic
Activity [32]: Non-toxic
Activity [34]: Non-toxic
Activity [35]: 123.9 µmol/L
Activity [36]: 2.7 ng/mL
Activity [37]: 1165 U/L
Activity [38]: Non-toxic
Activity [39]: 66.5 U/L
